We go through 3 compounds from ChEMBL document CHEMBL4813931, “Boesenmaxane Diterpenoids from Boesenbergia maxwellii” (J Nat Prod, 2021).

Calls of active or inactive are those of the source. No cut-off for these calls is given here.

The test system of series [1] is Escherichia coli. In words: Antibacterial activity against Escherichia coli assessed as bacterial growth inhibition measured after 16 to 18 hrs by Kirby-Bauer disk diffusion method. The conditions noted are these: time 16-18 hrs. Format: functional, organism-based.
The subject of series [2] is Enterococcus faecalis. In words: Antibacterial activity against Enterococcus faecalis assessed as bacterial growth inhibition measured after 16 to 18 hrs by Kirby-Bauer disk diffusion method. The class given is functional, organism-based. The conditions noted are these: time 16-18 hrs.
Series [3] has as its target Human immunodeficiency virus type 1 reverse transcriptase (Human immunodeficiency virus 1) (UniProt Q72547). In words: Inhibition of HIV-1 reverse transcriptase using poly(rA)/oligo(dT)1 as template/primer incubated for 1 hr by pico-green reagent based fluorescence analysis.
In series [4] the test system is A549. In words: Cytotoxicity against human A549 cells measured after 48 hrs by SRB assay. The class given is functional, cell-based.
Series [5] concerns HT-29. In words: Cytotoxicity against human HT-29 cells measured after 48 hrs by SRB assay. Format: functional, cell-based.
Series [6] relates to MCF7. In words: Cytotoxicity against human MCF7 cells measured after 48 hrs by SRB assay. Format: functional, cell-based.
In series [7] the test system is ASK. In words: Cytotoxicity against rat ASK cells measured after 48 hrs by SRB assay. The class given is functional, cell-based.
The subject of series [8] is Staphylococcus aureus. In words: Antibacterial activity against Staphylococcus aureus assessed as bacterial growth inhibition measured after 16 to 18 hrs by Kirby-Bauer disk diffusion method. The class given is functional, organism-based. As to conditions: time 16-18 hrs.
Series [9] has as its system Candida albicans. In words: Antifungal activity against Candida albicans assessed as fungal growth inhibition measured after 16 to 18 hrs by Kirby-Bauer disk diffusion method. Format: functional, organism-based. As to conditions: time 16-18 hrs.
Series [10] relates to HEK293. In words: Cytotoxicity against human HEK293 cells measured after 48 hrs by SRB assay. The conditions noted are these: hek293, 48 h. Format: cell-based.
A short description of series [11]: Selectivity index, ratio of IC50 for human 1A2 cells to EC50 for Human calicivirus strain MC99 infected in human 1A2 cells. As to conditions: read-out: Ratio IC50/EC50. The class given is toxicity, cell-based.
Series [12] concerns T-24. In words: Cytotoxicity against human T-24 cells measured after 48 hrs by SRB assay. The class given is functional, cell-based.
The test system of series [13] is KB. In words: Cytotoxicity against human KB cells measured after 48 hrs by SRB assay. The class given is functional, cell-based.
The nature of series [14]: Cytotoxicity against human 1A2 cells measured after 1 hr by XTT assay. Format: cell-based. As to conditions: 1A2, 1 h.
Series [15] concerns Bacillus cereus. In words: Antibacterial activity against Bacillus cereus assessed as bacterial growth inhibition measured after 16 to 18 hrs by Kirby-Bauer disk diffusion method. The class given is functional, organism-based. The conditions noted are these: time 16-18 hrs.
Series [16] has as its system P388. In words: Cytotoxicity against mouse P388 cells measured after 48 hrs by SRB assay. Format: functional, cell-based.

With `CC1(C)CCC[C@]2(C)C3=C(C[C@H](C4=CCOC4=O)C3)C(=O)C[C@@H]12`, the inhibition result in series [1], in series [2], in [3], in series [8], in [9] and in series [15] was “inactive” throughout. For the same compound, the outcome in [4], in [5], in [6], in [7], in series [12] and in series [13] was inactive. For the same compound, the result in series [16] was inactive. Further, in series [10], the Activity entry was “Non-Toxic”. The selectivity ratio in series [11] is > 7.2. For the same compound, the IC50 in [14] is > 398 µM.

Take `CC1(C)C(=O)CC[C@]2(C)C3=C(C[C@H](C4=CCOC4=O)C3)C(=O)C[C@@H]12`: the inhibition result in series [1], in series [2], in series [3], in series [8], in series [9] and in [15] was “inactive” in each case. Further, the outcome in series [4], in series [5], in series [6], in series [7], in series [12] and in [13] was inactive. In addition, the outcome in series [16] was inactive. In addition, the Activity result in series [10] is “Non-Toxic”.

Turning to `CC1(C)CCC[C@]2(C)[C@H]3C[C@@H](C4=CCOC4=O)CC3=CC[C@@H]12`, the inhibition entry in series [1], in series [2], in [8], in series [9] and in series [15] was “inactive” each time. In addition, the outcome in [4], in series [5], in [6], in series [7], in [12] and in series [13] was inactive. For the same compound, in series [16], the outcome was inactive. In addition, in [10], the Activity entry was “Non-Toxic”. The same compound gave an IC50 in series [14] of 381 µM.
